One series concerns mice. As to conditions: mouse, in vivo.
In series [1] the test system is stem cell populations in blood (cd34+, cd45+, Sca-1+ cells). Briefly: FACS of cells expressing stem cell markers CD34, CD45, Sca-1 in blood samples. Conditions: valproic acid 200 mg/kg i.p.; 72 hours post treatment. In kind it is in vivo, C57BL6/J mice.
Series [2] has the same test system. Described as above. In kind it is in vivo, C57BL6/J mice. Here is the method: Mice received either a placebo or triptolide (400 μg/kg) by intraperitoneal injection.
Celastrol analogs administered included dihydrocelastrol, dihydrocelastrol diacetate, and pristimerol (dihydropristimerin). Mice received either a placebo or a celastrol analog (3.0 mg/kg) by intraperitoneal injection.
(§1) Mice received either a placebo (PBS) or oridonin (3.0 mg/kg) by intraperitoneal injection.

Series [3] relates to stem cell populations in bone marrow (cd34+, cd45+, Sca-1+ cells). The series can be described thus: FACS of cells expressing stem cell markers CD34, CD45, Sca-1 in bone marrow samples. In kind it is in vivo, C57BL6/J mice. Conditions: 24 hours post treatment. Here is the method: as §1
The mark [4] stands for this setting: valproic acid 200 mg/kg i.p., 72 hours post treatment.
The mark [5] stands for this setting: celastrol analog 3.0 mg/kg i.p., 24 hours post treatment (so in the source).
Setting [6] is: celastrol analog 3.0 mg/kg i.p.

Where only a bound is given, the exact number is not on record here.

Procedure for mice: Valproic acid was administered to C57BL6/J mice to determine the effect of valproic acid on stem cell populations in bone marrow and in blood. Mice received either a placebo or valproic acid (200 mg/kg) by intraperitoneal injection. […] Bone marrow samples were taken from both groups of mice at 24 hours after administration of the placebo or valproic acid. Blood samples were taken from both groups of mice at 72 hours after administration of the placebo or valproic acid. The bone marrow samples and blood samples were analyzed by FACS for cells expressing stem cell markers. To observe the effect of treatment with valproic acid, cells expressing the stem cell markers CD34, CD45, and Sca-1 in the bone marrow and blood samples, were quantitated as a percentage of the total populations in their respective samples (i.e., in the bone marrow sample and in the blood sample, respectively).

For `CCCC(CCC)C(=O)O` [valproic acid], the toxicity in mice entry in the series on mice is “not toxic”. Besides, in series [1], the “fold increase of percentage of Sca-1+ cells in blood over control” value was around 3 fold and the “fold increase of percentage of cd45+ cells in blood over control” value was around 4 fold. Also, in series [2] (setting [4]), the “Sca-1+ cells, percent of the population of blood cells” value is on record as “less than 0.4%”; the “cd34+ cells, percent of the population of blood cells” value is listed as “greater than 0.4%”; the “cd45+ cells, percent of the population of blood cells” value is given as “less than 0.2%”; the “fold increase of percentage of cd34+ cells in blood over control” value is on record as around 2.6 fold. Moreover, in series [3] (valproic acid 200 mg/kg i.p.), the “CD34 cells, percent of the population of bone marrow cells” value was “about 0.2%”; the “Sca-1+ cells, percent of the population of bone marrow cells” value is given as “about 0.18%”; the “cd45+ cells, percent of the population of bone marrow cells” value is given as “about 0.08%”; the “fold increase of percentage of Sca-1+ cells in bone marrow over control” value is recorded as around 6 fold. In series [3] (valproic acid 200 mg/kg i.p.), the “fold increase of percentage of cd34+ cells in bone marrow over control” value is at least 4 fold and the “fold increase of percentage of cd45+ cells in bone marrow over control” value was at least 3 fold.

dihydrocelastrol diacetate: in series [2] (setting [5]), the “Sca-1+ cells, percent of the population of blood cells” value was “about 1.4%”; the “cd34+ cells, percent of the population of blood cells” value came to 1.5%; the “cd45+ cells, percent of the population of blood cells” value was “about 0.4%”; the “fold increase of percentage of Sca-1+ cells in blood over control” value is reported as around 36 fold. Also, in series [2] (setting [5]), the “fold increase of percentage of cd34+ cells in blood over control” value is given as around 10 fold and the “fold increase of percentage of cd45+ cells in blood over control” value was around 20 fold. In series [3] (setting [6]), the “Sca-1+ cells, percent of the population of bone marrow cells” value is given as “about 0.17%”; the “cd34+ cells, percent of the population of bone marrow cells” value is recorded as 0.15%; the “change of percentage of cd45+ cells in bone marrow compared to untreated control” value was “decrease”; the “fold increase of percentage of Sca-1+ cells in bone marrow over control” value is reported as around 3 fold. For the same compound, the “fold increase of percentage of cd34+ cells in bone marrow over control” value in series [3] (setting [6]) is given as around 3 fold.

Source of the values: US20110218143A1, “COMPOSITIONS AND METHODS FOR TISSUE REPAIR” (UNIVERSITY OF FLORIDA RESEARCH FOUNDATION, priority 2007, published 2011).
